From BindingDB's records for doi:10.1021/acs.jmedchem.8b00370 (Genentech, 2018)

Biological target: Mitogen-activated protein kinase kinase kinase 12 (Homo sapiens) (UniProt Q12852)
Test: Inhibition of DLK (unknown origin) using myelin basic protein as substrate preincubated for 15 mins measured after 30 mins in presence of [gamma-32P]ATP by scintillation counting

Chain of Mitogen-activated protein kinase kinase kinase 12 (Homo sapiens) (Q12852 whole entry, looked up): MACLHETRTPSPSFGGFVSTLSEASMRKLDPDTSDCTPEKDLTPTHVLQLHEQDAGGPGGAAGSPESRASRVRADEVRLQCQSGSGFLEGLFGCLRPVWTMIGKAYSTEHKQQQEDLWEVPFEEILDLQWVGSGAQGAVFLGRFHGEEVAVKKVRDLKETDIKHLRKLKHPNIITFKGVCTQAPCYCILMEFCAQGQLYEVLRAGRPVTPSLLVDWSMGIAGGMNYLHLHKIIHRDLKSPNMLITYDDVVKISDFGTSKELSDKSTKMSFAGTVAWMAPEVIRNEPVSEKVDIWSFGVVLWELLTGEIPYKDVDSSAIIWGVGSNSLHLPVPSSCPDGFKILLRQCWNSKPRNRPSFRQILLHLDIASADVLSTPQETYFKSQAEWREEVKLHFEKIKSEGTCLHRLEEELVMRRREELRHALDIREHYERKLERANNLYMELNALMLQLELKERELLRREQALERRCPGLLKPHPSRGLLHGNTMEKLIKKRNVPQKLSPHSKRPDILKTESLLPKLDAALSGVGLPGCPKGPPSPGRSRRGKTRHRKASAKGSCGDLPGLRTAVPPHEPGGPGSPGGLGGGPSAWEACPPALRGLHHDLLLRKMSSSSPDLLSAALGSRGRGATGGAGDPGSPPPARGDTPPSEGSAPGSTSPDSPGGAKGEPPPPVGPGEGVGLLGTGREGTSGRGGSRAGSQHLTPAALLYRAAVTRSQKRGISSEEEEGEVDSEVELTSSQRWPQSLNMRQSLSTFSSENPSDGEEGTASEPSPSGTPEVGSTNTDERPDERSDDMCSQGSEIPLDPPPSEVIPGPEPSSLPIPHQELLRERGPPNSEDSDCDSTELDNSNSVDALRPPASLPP

- IC50: 1 nM
SMILES: CC(C)n1c2ccc(Oc3ncccn3)cc2c2c3c(c4c(c21)CCc1nn(C)cc1-4)C(=O)NC3
